Assay results reported in patent US10238657B2, “Heterocyclic compounds for treating psoriasis” (JS INNOPHARM (SHANGHAI LTD.), priority 2015, dated 2019).
Values after ≈ are worked out from the molar mass of the structure shown.

Tests used:
HaCaT cells [1] = assay: In-vitro screening with MTT method, inhibition of proliferation of HaCaT cells; assay type: cell-based, human; details: Homo sapiens, HaCaT, about 48 hours incubation
Description: Compound No. 5 was dissolved in DMSO, and gradiently diluted with PBS to prepare solutions at concentration of 1000 μg/ml, 100 μg/ml, 10 μg/ml, 1 μg/ml, 0.1 μg/ml, and 0.01 μg/ml, respectively. Cis-platinum (CDDP) was used as positive control, and sample solutions were prepared with the same method. The sample solutions were added into a 96-well plate placed with the growth phase human immortalized keratinocyte (HaCaT) cells (Pharmacology Laboratory of Shanghai Institute of Pharmaceutical Industry), and were incubated for about 48 hours. The cell relative survival rate was determined by the MTT method, and calculated according to the following formula based on the light absorption value at […]. Cell relative survival rate=(Light absorption value of sample treatment group—background light absorption value)/(Light absorption value of DMSO treatment group—background light absorption value).

HaCaT cells [2] = assay: Morphological examination of the effect on HaCaT cell differentiation; assay type: cell-based, human
Description: HaCaT cells were cultured in DMEM culture medium containing 10% FBS under 37° C. and 5% CO2 concentration. When reaching 80% of the culture bottle area and after digestion by 0.25% trypsin, the cells were adjusted to a concentration of 4×10^4/ml and moved to a 6-well plate respectively (containing sterilized slide). Compound solutions were added. The cells were applied to the corresponding wells, and a blank control group (saline) was set. Both the sample groups and the control group were placed in a cell incubator at 37° C. Immumohistochemical staining was conducted after incubation at 48 h.
The imagine in FIG. 1A is dark brown, indicating large amount of keratin is present. […] Compound No. 5 underwent cornification (positive result).

[3] = test system: chick chorioallantoic membrane; assay: Chick chorioallantoic membrane (CAM) angiogenesis model; assay type: in vivo, chicken; details: 100 μg/egg
Description: Fresh eggs were incubated for 6 successive days under 37° C. and 50% humidity. On the 6th day, live eggs were identified and taken out for window-opening. First, the chorioallantoic membrane was located with illumination. Droplets of Compound No. […] After air dry, the filter paper was placed on the chorioallantoic membrane gently without contacting big vessels. The window was sealed with a transparent adhesive tape. The eggs were incubated for 48 hours continuously. The transparent adhesive tape was then uncovered. The window was enlarged and photos were taken under a dissecting microscope (FIGS. 2 A-B). New vessels were counted based on the number of blood vessel branch points in each photo. Inhibitory rate=100−[(number of new blood vessels in treatment group at 24 h)/(number of new blood vessels in treatment group at 0 h)]/[(number of blood vessels in negative control group at 24 h)/(number of blood vessels in negative control group at 0 h)]×100%.

mouse tail epidermis = assay: Effect on mouse tail epidermis (granular layer of tail scales); assay type: in vivo; details: 100 μl once daily, 7 days, female mice, n = 10
Description: 70 female mice were randomly divided into several groups: (a) saline control group, saline was used in each administration; (b) blank cream group, blank cream was used in each administration; (c) calcipotriol control group, calcipotriol in cream (5% w/w) was used in each administration; (d) four testing groups, Compound No 5 in cream at 0.5%, 1%, 2%, and 4% (w/w), respectively, was used in each administration. 100 μl of corresponding treatment was applied to the same position on the tail of the mice once daily for seven successive days. The mice were sacrificed 1 hour after the last application. The treated skin parts were taken for pathological examination, and the tail scales of each mouse was assessed under a microscope. The number of scales having a granular layer in every 100 scales was counted, and the result was expressed as percentage.

[4] = test system: mouse vaginal epidermal cells; assay: Effect on mitosis of mouse vaginal epidermal cells; assay type: in vivo; details: 25 μl intravaginal once daily, 3 days, estradiol-treated mice, n = 6
Description: Except for the saline control group, sexually mature female mice were injected with estradiol subcutaneously at a dosage of 35 mg/kg for 3 successive days. On the fourth day, in-estrus mice were selected with vaginal smear. The mice were randomly divided into several groups: (a) saline control group, saline was used in each administration; (b) blank cream group, blank cream was used in each administration; (c) calcipotriol control group, calcipotriol in cream (5% w/w) was used in each administration; (d) four testing groups, Compound No 5 in cream at concentration of 0.5%, 1%, 2%, and 4% (w/w), respectively, was used in each application. 25 μl corresponding treatment was injected into the vagina of the mice once daily for 3 successive days. Colchicine (15 mg/Kg) was intraperitoneally injected 2 hours after the last dosing. The mice were sacrificed 6 hours after the injection of colchicine. The vaginal tissue was taken out for pathological examination. The number of mitosis in one hundred basal cells was counted, which was named as the mitotic index.

guinea pig ear epidermis = assay: Propranolole hydrochloride-induced psoriasis in guinea pig model; assay type: in vivo; details: 200 μl on both ears twice daily, 7 days
Description: Except for those in Saline control group, guinea pigs were treated with propranolole hydrochloride cream (5% w/w, 200 μl) uniformly applied on the back of both ears twice daily for four successive weeks. After four weeks, the […] were divided into several groups, namely, blank cream group, calcipotriol group, and four testing cream groups with Compound 5 at concentration of 0.5%, 1%, 2%, and 4% (w/w)), respectively. The guinea pigs in Saline control group were treated with saline on the back of both ears; the guinea pigs in other groups were treated with corresponding cream on the back of both ears (200 μl) twice daily for 7 successive days. The guinea pigs were examined during the experiment period and sacrificed 1 hour after the last dosing.

Cc1cnc(Nc2ccc(F)cc2Cl)nc1-c1cc2n(c1)CCN([C@H](CO)c1cccc(Cl)c1)C2=O [Compound 5, (S)-7-(2-((2-chloro-4-fluorophenyl)amino)-5-methylpyrimidin-4-yl)-2-(1-(3-chlorophenyl)-2-hydroxyethyl)-3,4-dihydropyrrolo[1,2-a]pyrazin-1(2H)-one]
IC50 (HaCaT cells [1]): 544 µg/mL (≈ 1030 µM) | Differentiation of HaCaT cells (keratin, cornification) (HaCaT cells [2]; 100 μg/ml, 48 h, inverted microscope x200, FIG. 1A): induced differentiation of HaCaT cells | Test Results, effect on HaCat cell differentiation (HaCaT cells [2]; 48 h incubation, immunohistochemical staining): Positive | Number of new blood vessels 0 h ([3]; 0 h, n = 3): 18.83 ± 5.60 | Number of new blood vessels 48 h ([3]; 48 h, n = 3): 16.00 ± 5.73 | Inhibitory rate (%) ([3]; 48 h, versus PBS group): 125.76% | Scales quantity in granular layer * 100% (mouse tail epidermis; cream 0.5% (w/w)): 42.40 ± 3.03 % | Scales quantity in granular layer * 100% (mouse tail epidermis; cream 1% (w/w)): 47.00 ± 5.29 % | Scales quantity in granular layer * 100% (mouse tail epidermis; cream 2% (w/w)): 50.80 ± 7.50 % | Scales quantity in granular layer * 100% (mouse tail epidermis; cream 4% (w/w)): 58.80 ± 7.64 % | Mitotic cell number/total cell number (%) ([4]; cream 0.5% (w/w)): 18.33 ± 1.86 % | Mitotic cell number/total cell number (%) ([4]; cream 1% (w/w)): 15.00 ± 3.35 % | Mitotic cell number/total cell number (%) ([4]; cream 2% (w/w)): 14.83 ± 2.48 % | Mitotic cell number/total cell number (%) ([4]; cream 4% (w/w)): 14.50 ± 3.62 % | Epidermal thickness (μm) (guinea pig ear epidermis; cream 0.5% w/w): 190.31 ± 17.89 μm | Epidermal thickness (μm) (guinea pig ear epidermis; cream 1% w/w): 180.74 ± 11.05 μm | Epidermal thickness (μm) (guinea pig ear epidermis; cream 2% w/w): 156.59 ± 13.25 μm | Epidermal thickness (μm) (guinea pig ear epidermis; cream 4% w/w): 128.96 ± 13.61 μm
